Test system: Detoxification protein genes
Test: DNA chip mRNA expression in yeast, detoxification protein genes (Table 8)
Type: cell-based, Saccharomyces cerevisiae S288C
Method in brief: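 S. cerevisiae S288C grown at 25° C in YPD were exposed in log phase for two hours to one toxic chemical at a growth-inhibiting, non-lethal concentration; untreated cells served as control. Poly(A) mRNA was reverse-transcribed with Cy3/Cy5-dUTP and hybridized to a whole-genome yeast DNA chip at 65° C for over 12 hours; values are fluorescence ratios versus untreated.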

CCCCCCCCCCCCc1ccc(S(=O)(=O)[O-])cc1.[Na+] [(17), sodium dodecylbenzosulfonate]
The level of expressed mRNA in the presence of chemical substance/The level of expressed mRNA in the absence of chemical substance (yeast gene YBL064C): 1.2
The level of expressed mRNA in the presence of chemical substance/The level of expressed mRNA in the absence of chemical substance (yeast gene YBR008C): 2.0
The level of expressed mRNA in the presence of chemical substance/The level of expressed mRNA in the absence of chemical substance (yeast gene YBR145W): 1.7
The level of expressed mRNA in the presence of chemical substance/The level of expressed mRNA in the absence of chemical substance (yeast gene YBR244W): 1.2
The level of expressed mRNA in the presence of chemical substance/The level of expressed mRNA in the absence of chemical substance (yeast gene YBR293W): 1.0
The level of expressed mRNA in the presence of chemical substance/The level of expressed mRNA in the absence of chemical substance (yeast gene YCL035C): 2.6
The level of expressed mRNA in the presence of chemical substance/The level of expressed mRNA in the absence of chemical substance (yeast gene YCL069W): 1.0
The level of expressed mRNA in the presence of chemical substance/The level of expressed mRNA in the absence of chemical substance (yeast gene YCR083W): 1.3
The level of expressed mRNA in the presence of chemical substance/The level of expressed mRNA in the absence of chemical substance (yeast gene YDL100C): 1.2
The level of expressed mRNA in the presence of chemical substance/The level of expressed mRNA in the absence of chemical substance (yeast gene YDL168W): 0.9
The level of expressed mRNA in the presence of chemical substance/The level of expressed mRNA in the absence of chemical substance (yeast gene YDR256C): 1.0
The level of expressed mRNA in the presence of chemical substance/The level of expressed mRNA in the absence of chemical substance (yeast gene YDR453C): 1.0
The level of expressed mRNA in the presence of chemical substance/The level of expressed mRNA in the absence of chemical substance (yeast gene YDR513W): 1.3
The level of expressed mRNA in the presence of chemical substance/The level of expressed mRNA in the absence of chemical substance (yeast gene YDR538W): 1.0
The level of expressed mRNA in the presence of chemical substance/The level of expressed mRNA in the absence of chemical substance (yeast gene YEL027W): 1.0
The level of expressed mRNA in the presence of chemical substance/The level of expressed mRNA in the absence of chemical substance (yeast gene YEL065W): 0.7
The level of expressed mRNA in the presence of chemical substance/The level of expressed mRNA in the absence of chemical substance (yeast gene YER185W): 2.6
The level of expressed mRNA in the presence of chemical substance/The level of expressed mRNA in the absence of chemical substance (yeast gene YFL050C): 0.8
The level of expressed mRNA in the presence of chemical substance/The level of expressed mRNA in the absence of chemical substance (yeast gene YGL013C): 1.1
The level of expressed mRNA in the presence of chemical substance/The level of expressed mRNA in the absence of chemical substance (yeast gene YGL254W): 0.8
The level of expressed mRNA in the presence of chemical substance/The level of expressed mRNA in the absence of chemical substance (yeast gene YGR088W): 0.9
The level of expressed mRNA in the presence of chemical substance/The level of expressed mRNA in the absence of chemical substance (yeast gene YGR138C): 0.7
The level of expressed mRNA in the presence of chemical substance/The level of expressed mRNA in the absence of chemical substance (yeast gene YGR197C): 1.7
The level of expressed mRNA in the presence of chemical substance/The level of expressed mRNA in the absence of chemical substance (yeast gene YGR209C): 1.3
The level of expressed mRNA in the presence of chemical substance/The level of expressed mRNA in the absence of chemical substance (yeast gene YGR224W): 2.8
The level of expressed mRNA in the presence of chemical substance/The level of expressed mRNA in the absence of chemical substance (yeast gene YHL040C): 1.4
The level of expressed mRNA in the presence of chemical substance/The level of expressed mRNA in the absence of chemical substance (yeast gene YHL047C): 1.2
The level of expressed mRNA in the presence of chemical substance/The level of expressed mRNA in the absence of chemical substance (yeast gene YHR008C): 0.9
The level of expressed mRNA in the presence of chemical substance/The level of expressed mRNA in the absence of chemical substance (yeast gene YHR048W): 0.7
The level of expressed mRNA in the presence of chemical substance/The level of expressed mRNA in the absence of chemical substance (yeast gene YHR053C): 1.0
The level of expressed mRNA in the presence of chemical substance/The level of expressed mRNA in the absence of chemical substance (yeast gene YHR055C): 0.9
The level of expressed mRNA in the presence of chemical substance/The level of expressed mRNA in the absence of chemical substance (yeast gene YIR002C): 1.1
The level of expressed mRNA in the presence of chemical substance/The level of expressed mRNA in the absence of chemical substance (yeast gene YIR038C): 2.8
The level of expressed mRNA in the presence of chemical substance/The level of expressed mRNA in the absence of chemical substance (yeast gene YJL101C): 0.9
The level of expressed mRNA in the presence of chemical substance/The level of expressed mRNA in the absence of chemical substance (yeast gene YJR104C): 0.9
The level of expressed mRNA in the presence of chemical substance/The level of expressed mRNA in the absence of chemical substance (yeast gene YKL026C): 1.6
The level of expressed mRNA in the presence of chemical substance/The level of expressed mRNA in the absence of chemical substance (yeast gene YKL064W): 1.3
The level of expressed mRNA in the presence of chemical substance/The level of expressed mRNA in the absence of chemical substance (yeast gene YKR066C): 0.9
The level of expressed mRNA in the presence of chemical substance/The level of expressed mRNA in the absence of chemical substance (yeast gene YKR105C): 0.8
The level of expressed mRNA in the presence of chemical substance/The level of expressed mRNA in the absence of chemical substance (yeast gene YKR106W): 0.9
The level of expressed mRNA in the presence of chemical substance/The level of expressed mRNA in the absence of chemical substance (yeast gene YLL028W): 1.2
The level of expressed mRNA in the presence of chemical substance/The level of expressed mRNA in the absence of chemical substance (yeast gene YLL057C): 3.0
The level of expressed mRNA in the presence of chemical substance/The level of expressed mRNA in the absence of chemical substance (yeast gene YLL060C): 1.9
The level of expressed mRNA in the presence of chemical substance/The level of expressed mRNA in the absence of chemical substance (yeast gene YLR043C): 1.5
The level of expressed mRNA in the presence of chemical substance/The level of expressed mRNA in the absence of chemical substance (yeast gene YLR046C): 5.2
The level of expressed mRNA in the presence of chemical substance/The level of expressed mRNA in the absence of chemical substance (yeast gene YML028W): 1.1
The level of expressed mRNA in the presence of chemical substance/The level of expressed mRNA in the absence of chemical substance (yeast gene YML116W): 1.0
The level of expressed mRNA in the presence of chemical substance/The level of expressed mRNA in the absence of chemical substance (yeast gene YMR015C): 1.0
The level of expressed mRNA in the presence of chemical substance/The level of expressed mRNA in the absence of chemical substance (yeast gene YMR038C): 1.2
The level of expressed mRNA in the presence of chemical substance/The level of expressed mRNA in the absence of chemical substance (yeast gene YNL239W): 1.1
The level of expressed mRNA in the presence of chemical substance/The level of expressed mRNA in the absence of chemical substance (yeast gene YNL241C): 1.0
The level of expressed mRNA in the presence of chemical substance/The level of expressed mRNA in the absence of chemical substance (yeast gene YNL259C): 2.6
The level of expressed mRNA in the presence of chemical substance/The level of expressed mRNA in the absence of chemical substance (yeast gene YOL158C): 1.4
The level of expressed mRNA in the presence of chemical substance/The level of expressed mRNA in the absence of chemical substance (yeast gene YOR031W): 1.7
The level of expressed mRNA in the presence of chemical substance/The level of expressed mRNA in the absence of chemical substance (yeast gene YOR153W): 2.5
The level of expressed mRNA in the presence of chemical substance/The level of expressed mRNA in the absence of chemical substance (yeast gene YOR247W): 1.2
The level of expressed mRNA in the presence of chemical substance/The level of expressed mRNA in the absence of chemical substance (yeast gene YOR251C): 0.9
The level of expressed mRNA in the presence of chemical substance/The level of expressed mRNA in the absence of chemical substance (yeast gene YOR273C): 3.2
The level of expressed mRNA in the presence of chemical substance/The level of expressed mRNA in the absence of chemical substance (yeast gene YPL163C): 1.4
The level of expressed mRNA in the presence of chemical substance/The level of expressed mRNA in the absence of chemical substance (yeast gene YPR200C): 1.1
